Data as given in PMC7238232, “Acamprosate Is a Substrate of the Human Organic Anion Transporter (OAT) 1 without OAT3 Inhibitory Properties: Implications for Renal Acamprosate Secretion and Drug–Drug Interactions” (Pharmaceutics, 2020).

What was measured:
HEK293-Flp-In mock cells = assay: CellTiter-Glo cell viability assay, mock cells; details: up to 3300 µM acamprosate; 3 h
TAUT = details: Caco-2 cells, preliminary data; cited from earlier work
HEK293-Flp-In OAT1 cells = assay: CellTiter-Glo cell viability assay, OAT1 transfected cells; details: up to 3300 µM acamprosate; 3 h
HEK293-Flp-In OAT3 cells = assay: CellTiter-Glo cell viability assay, OAT3 transfected cells; details: up to 3300 µM acamprosate; 3 h
OATP2B1 = details: Caco-2 cells, preliminary data; cited from earlier work
OAT1 = biological target: T1, OAT1 (Homo sapiens, UniProt Q4U2R8); assay: [14C]-PAH uptake and its inhibition in HEK293-Flp-In OAT1 cells
T1 sequence (Q4U2R8 1-563): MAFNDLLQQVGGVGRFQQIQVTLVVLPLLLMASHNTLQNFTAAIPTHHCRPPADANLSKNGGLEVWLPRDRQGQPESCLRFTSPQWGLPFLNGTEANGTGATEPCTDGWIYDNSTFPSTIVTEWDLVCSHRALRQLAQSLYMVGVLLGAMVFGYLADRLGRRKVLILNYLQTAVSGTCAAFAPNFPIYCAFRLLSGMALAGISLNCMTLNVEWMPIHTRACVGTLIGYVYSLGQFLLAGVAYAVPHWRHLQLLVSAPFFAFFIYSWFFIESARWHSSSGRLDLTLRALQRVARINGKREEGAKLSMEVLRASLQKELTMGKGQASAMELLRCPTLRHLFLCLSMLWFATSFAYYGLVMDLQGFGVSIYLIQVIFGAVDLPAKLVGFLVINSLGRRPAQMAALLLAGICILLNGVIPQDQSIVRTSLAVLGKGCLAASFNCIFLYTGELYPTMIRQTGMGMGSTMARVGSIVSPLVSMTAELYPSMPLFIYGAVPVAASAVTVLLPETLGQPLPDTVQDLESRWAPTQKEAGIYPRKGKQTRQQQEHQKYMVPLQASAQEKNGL
Description: All uptake experiments were performed on 24- or 96-well plates. Before the experiment initiation, the cells were incubated with either 500 or 200 µL∙well^−1 prewarmed buffer for 10 min at 37 °C in a microplate incubator (VWR International AB, Stockholm, Sweden), without shaking. […] The experiment was stopped by adding 200 µL∙well^−1 of ice-cold buffer and subsequent rinse three times with the same amount of buffer. In Lab. 1 the sample analysis of the OAT1/OAT3/mock studies consisted in removing the rinsing buffer and lysing the cells with 70 µL 1M NaOH, following by incubation for 60 min at 37 °C and 100 rpm. A total of 50 µL of cell lysate from each well was transferred to 96-well Luma plates bottom coated with dry scintillant. Then, 2∙20 µL of each donor and three 50 µL blank samples were applied on the same plate. The dry plates were covered with transparent seals and analyzed using a TopCount NXT Microplate Scintillation and Luminescence Counter (Perkin Elmer, Waltham, MA, USA). The remaining 20 µL cell lysate was neutralized with 20 µL 1M HCl∙well^−1, samples were mixed thoroughly and the total protein content in all the wells was measured using a BCA protein assay kit, microplate method, and a Tecan Safire II fluorometer (Tecan Austria GmbH, Grödig, Austria). For the experiments in Lab. 2, the cells were lysed by adding 200 µL 0.1% Triton X-100 and incubated for 5 min at 37 °C and 100 rpm. […] The total protein content was measured by using a BCA protein assay kit and a FLUOStar Omega fluorescence microplate reader (BMG Labtech, Ortenberg, Germany). The protein assay for the OAT3 and mock cell lines was performed in four independent wells of each cell line, seeded and treated in the same manner as the cells used in the uptake assay. For all the OAT1, OAT3, and mock isotope uptake studies, the radiolabelled tracer accumulation (pmol) in each well was calculated by first determining the activity of the isotope (DPM∙pmol^−1) from the radioactivity (DPM) of the donor sample divided by the theoretical isotope concentration (pmol), then dividing the total radioactivity in the well (DPM) to the specific activity of the isotope (DPM∙pmol^−1).
A range of preincubation solutions was prepared at the same concentrations of acamprosate applied in the inhibition assays. Acamprosate was dissolved in HBSS buffered with 10 mM HEPES and the pH was adjusted to 7.40 ± 0.01. The preincubation solutions were prewarmed to 37 °C and applied to the corresponding cells after removing the cell growth medium. The preincubation was done for 3 h, at 37 °C, without shaking. After the preincubation, the solutions were removed, and the inhibition experiment was performed as described in the Section 2.6.
The obtained intracellular amounts (pmol) were normalized to the assay time (min) and cell surface area (cm^2) or protein amount (mg protein) to obtain a term hereafter referred to as uptake rate. The uptake rate of acamprosate as a function of concentration was fitted to a Michaelis–Menten type equation which includes a saturable and a non-saturable uptake component, (1) V=Vmax · [S]/Km +[S]+P · [S] where V is the substrate uptake rate; Vmax is the maximal uptake rate; P is a constant related to non-saturable apparent uptake, i.e., factors such as passive diffusion, unspecific binding and residual compound present after washing steps, and [S] is the substrate concentration (µM). […] Assuming competitive interaction, equilibrium dissociation constants, Ki, were calculated from the IC50 value for each substrate/inhibitor pair, at substrate Km, using the Cheng–Prusoff equation [24].

[1] = no reference given; cited from earlier work
PEPT1 = details: Caco-2 cells, preliminary data; cited from earlier work
B^0,+AT/rBAT = details: Caco-2 cells, preliminary data; cited from earlier work
[2] = Clinical pharmacokinetics in humans (literature); details: for Cmax,u: acamprosate, calculated

In the case of `CC(=O)NCCCS(=O)(=O)O` [acamprosate, acetylhomotaurinate], the “decrease in cell viability” value (HEK293-Flp-In mock cells) is listed as ≤ 10%, the “inhibition of substrate transport via TAUT” value (TAUT) is listed as “did not inhibit” and the “decrease in cell viability” value (HEK293-Flp-In OAT1 cells) is listed as ≤ 10%. The “decrease in cell viability” value (HEK293-Flp-In OAT3 cells) was ≤ 10%, the “inhibition of substrate transport via OATP2B1” value (OATP2B1) was “did not inhibit” and the “effect on uptake of [14C]-PAH in OAT1 expressing cells” value (OAT1; 9.5 µM [14C]-PAH, 200 µM PAH, 300 µM probenecid, 1000 and 10,000 µM acamprosate, Lab. 1) was “significantly decreased”. It also gave an IC50 (OAT1; IC50, 3 h, inhibition of PAH uptake via OAT1, 9.5 µM [14C]-PAH, after 3 h preincubation with inhibitor, Lab. 2) of 582 µM, an IC50 (OAT1; IC50, inhibition of PAH uptake via OAT1, 9.5 µM [14C]-PAH, 3 min, applied concomitantly, Lab. 2) of 638 µM and an IC50 (OAT1; IC50, inhibition of PAH uptake via OAT1, 9.5 µM [14C]-PAH, 5 min, Lab. 1) of 1390 µM. For the same compound, the Ki (OAT1; Ki of acamprosate on PAH uptake, fit to competitive kinetics (Equation 4), Lab. 2) was 1230 ± 341 µM, the Ki (OAT1; Ki, inhibition of PAH uptake via OAT1, 3 h, Cheng-Prusoff, after 3 h preincubation, Lab. 2) was 287 µM and the Ki (OAT1; Ki, inhibition of PAH uptake via OAT1, Cheng-Prusoff from IC50, competitive inhibition assumed, Lab. 1) was 1140 µM. For the same compound, the Ki (OAT1; Ki, inhibition of PAH uptake via OAT1, Cheng-Prusoff, applied concomitantly, Lab. 2) was 315 µM, the “effect of 3 h preincubation on inhibition of [14C]-PAH uptake” value (OAT1; OAT1 expressing cells, 0–10,000 µM acamprosate, 200 µM PAH, 300 µM probenecid, Lab. 2) was “no apparent effect” and the Ki (OAT1; OAT1 inhibiting Ki-value) was 638 µM. The “mechanism of inhibition of OAT1-mediated PAH transport” value (OAT1; PAH uptake with 0, 625, 1250 or 2500 µM acamprosate, Lab. 2) was “competitive”, the Ki (OAT1; human, Ki values, inhibition of OAT1-mediated transport of PAH, range over the two laboratories) was 582 to 1230 µM and the IC50 (OAT1; human, hek293-flp-in oat1 cells, IC50, p-Aminohippuric Acid (PAH), input for DDI index, Table A1, for acamprosate interval of obtained values) was 287 to 1230 µM. For the same compound, the IC50 (OAT1; log IC50 ± log S.E.M., 3 h, inhibition of PAH uptake via OAT1, after 3 h preincubation, Lab. 2, log of IC50 in µM) was 631 µM, the IC50 (OAT1; log IC50 ± log S.E.M., inhibition of PAH uptake via OAT1, 9.5 µM [14C]-PAH, 5 min, Lab. 1, log of IC50 in µM) was 1260 µM and the IC50 (OAT1; log IC50 ± log S.E.M., inhibition of PAH uptake via OAT1, 3 min, applied concomitantly, Lab. 2, log of IC50 in µM) was 631 µM. The logP [1] was −3.57, the pKa [1] was 1.83 and the “inhibition of substrate transport via PEPT1” value (PEPT1) was “did not inhibit”. For the same compound, the “inhibition of substrate transport via B^0,+AT/rBAT” value (B^0,+AT/rBAT) was “did not inhibit”, the “Cmax,u” value ([2]; IV bolus, 333 mg) was 153 ± 38 µM and the “Cmax,u” value ([2]; IV bolus, 666 mg) was 214 ± 10 µM. For the same compound, the “Cmax,u” value ([2]; IV bolus, 710 mg) was 230 ± 64 µM, the “Cmax,u” value ([2]; IV bolus, 1420 mg) was 486 ± 106 µM and the “Cmax,u” value ([2]; IV bolus, 2130 mg) was 768 ± 149 µM. The “Cmax,u” value ([2]; oral solution, 333 mg) was 1.8 ± 0.8 µM, the “Cmax,u” value ([2]; oral solution, 666 mg) was 4.3 ± 1.4 µM and the “Cmax,u” value ([2]; oral solution, 1332 mg) was 5.0 ± 1.7 µM. The “Cmax,u” value ([2]; oral solution, 2664 mg) was 8.6 ± 4.1 µM, the “Cmax,u” value ([2]; oral tablet, 666 mg) was 1.4 ± 1.1 µM and the “Cmax,u” value ([2]; oral tablet, 1332 mg) was 1.5 ± 0.1 µM. The “contribution of active secretion to total CLR” value ([2]; estimated from CLR and GFR·fu) was “more than 44%”.
